Read-outs that look alike come from different tables or passages of the source.
Legend:
Assay type in all cases: cell-based
[1] = tested on: T-Rex 293 cells having increased expression of estrogen receptor alpha protein; experiment: Cellular growth inhibition assay, T-Rex 293 cells, (+) doxycycline; conditions: T-REx-293, 72 h, T-Rex 293 cells with doxycycline (increased ERα expression), 72 hours, CellTiter-Glo, read-out: (+) Dox GI50
Procedure, shortened: (§1)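 Cells of an inducible ERα-expressing T-Rex 293 clone are seeded in charcoal-dextran FBS medium with or without 3 ng/mL doxycycline, then treated after 24 h with compound dilutions (0.5% DMSO) for 72 h. Growth inhibition is measured by CellTiter-Glo luminescence and expressed as GI50.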

[2] = tested on: MCF7 cells (ECACC #86012803); experiment: Cellular growth inhibition assay, MCF7 cells purchased from ECACC; conditions: Homo sapiens, 144 h; MCF7 cells purchased from ECACC (#86012803); six days treatment; CellTiter-Glo 2.0 viability
Description: Exemplary compounds were tested for the ability to inhibit the proliferation of MCF7 cells.
MCF7 cells (ATCC #HTB-22 or ECACC #86012803) were cultured in RPMI 1640 medium supplemented with 10% heat-inactivated fetal bovine serum, 1% pen-strep, and 0.2 U/ml insulin. Cells were seeded in 25 μL of RPMI 1640 medium supplemented with 10% heat-inactivated fetal bovine serum, 1% pen-strep, 0.2 U/ml insulin in poly-D-lysine treated, black clear-bottom 384-well plates at 225 cells/well for MCF7 cells purchased from ECACC or 1,500 cells/well for MCF7 cells purchased from ATCC. Following seeding, plates were spun at 300×g for 30 seconds and cultured at 37° C. with 5% CO2 in a humidified tissue culture incubator.
At 24 hours after seeding, compounds were titrated in 100% DMSO and diluted in RPMI 1640 medium supplemented with 10% heat-inactivate fetal bovine serum, 1% pen-strep, and 0.2 U/ml insulin. A 25 μL aliquot of the compound/media mixture was added to cells, bringing the total volume in each well to 50 μL. An equal volume of DMSO without compound was used as a negative control. After treatment, plates were spun at 300×g for 30 seconds, then cultured at 37° C. with 5% CO2 for six days in a humidified tissue culture incubator.
On Day 6 of treatment, cell viability was quantified with CellTiter-Glo 2.0 reagent (Promega). Plates were equilibrated to room temperature for 30 minutes, then 25 μL of CellTiter-Glo 2.0 reagent was added to cells, bringing the total volume in each well to 75 μL. After reagent was added, plates were mixed on a shaker for two minutes at 500 rpm and then incubated at room temperature for 10 minutes. Following incubation, plates were spun at 3,000×g for 30 seconds, sealed with an optical adhesive cover, and luminescence readings were measured with an EnVision Plate Reader.
Data was normalized to 0 luminescence for baseline. A four-parameter, non-linear regression curve fit was applied to dose-response data in GraphPad Prism data analysis software to determine the half maximal growth inhibitory concentration (GI50) for each compound.

[3] = tested on: T-Rex 293 cells lacking increased expression of estrogen receptor alpha protein; experiment: Cellular growth inhibition assay, T-Rex 293 cells, (−) doxycycline; conditions: T-REx-293, 72 h, T-Rex 293 cells without doxycycline (lacking increased ERα expression), 72 hours, CellTiter-Glo, read-out: (−) Dox GI50
Procedure, shortened: as §1

[4] = tested on: MCF7 cells (ATCC #HTB-22); experiment: Cellular growth inhibition assay, MCF7 cells purchased from ATCC; conditions: Homo sapiens, MCF7, 144 h, Table 8-A; MCF7 cells purchased from ATCC; six days; CellTiter-Glo; read-out: GI50
Procedure, shortened: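 GI50 values come from a four-parameter fit of CellTiter-Glo 2.0 luminescence after six days of compound exposure at 37° C. Seeding density depended on the source: 225 cells/well for ECACC MCF7, 1,500 for ATCC. Medium was RPMI 1640 with 10% FBS and 0.2 U/ml insulin.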

| GI50 [2] [nM] | GI50 [4] [nM] | SMILES | GI50 ([1]; Table 7-B) [nM] | GI50 ([3]; Table 7-B) [nM] | GI50 ([1]; Table 7-A) [nM] | GI50 ([3]; Table 7-A) [nM] |
| --- | --- | --- | --- | --- | --- | --- |
| 500 to 2500 | – | COc1cc(N2CCN(CC3(O)CCN(c4ccc(C5=N[C@@H](C)c6nnc(C)n6-c6sc(C)c(C)c65)cc4)CC3)CC2)ccc1[C@H]1c2ccc(O)cc2CC[C@H]1c1ccc(C(F)(F)F)cc1 [III-348] | 500 to 2500 | 500 to 2500 | – | – |
| < 50 | – | COc1cc(N2CCN(CC3(O)CCN(c4ccc(C5=N[C@@H](C)c6nnc(C)n6-c6sc(C)c(C)c65)cc4)CC3)CC2)ccc1[C@@H]1c2ccc(O)cc2CC[C@@H]1c1ccc(C(F)(F)F)cc1 [III-349] | < 50 | 500 to 2500 | – | – |
| 50 to 500 | – | COc1cc(N2CCN(CC3CCN(c4ccc(C5=N[C@@H](C)c6nnc(C)n6-c6sc(C)c(C)c65)c(F)c4)CC3)CC2)ccc1[C@H]1c2ccc(O)cc2CC[C@H]1c1ccc(C(F)(F)F)cc1 [III-350] | > 2500 | > 2500 | – | – |
| – | 50 to 500 | CC1=C(c2c(F)cc(F)cc2F)C(c2ccc(N3CCC4(CCCN(CCOc5ccc(C6=N[C@@H](C)c7nnc(C)n7-c7sc(C)c(C)c76)cc5)C4)C3)cc2)Oc2ccc(O)cc21 (stereo partly drawn) [V-17] | – | – | 50 to 500 | 50 to 500 |
| – | 50 to 500 | CC1=C(c2c(F)cc(F)cc2F)C(c2ccc(N3CCC4(CCN(C(=O)Cc5ccc(C6=N[C@@H](C)c7nnc(C)n7-c7sc(C)c(C)c76)cc5)C4)CC3)cc2)Oc2ccc(O)cc21 (stereo partly drawn) [V-18] | – | – | 50 to 500 | 50 to 500 |
| – | < 50 | CC1=C(c2c(F)cc(F)cc2F)[C@H](c2ccc(N3CCC(CN4CCC5(CC4)CN(c4ccc(C6=N[C@@H](C)c7nnc(C)n7-c7sc(C)c(C)c76)cc4)C5)CC3)cc2)Oc2ccc(O)cc21 [V-19] | – | – | < 50 | 500 to 2500 |
| – | 50 to 500 | CC1=C(c2c(F)cc(F)cc2F)[C@@H](c2ccc(N3CCC(CN4CCC5(CC4)CN(c4ccc(C6=N[C@@H](C)c7nnc(C)n7-c7sc(C)c(C)c76)cc4)C5)CC3)cc2)Oc2ccc(O)cc21 [V-20] | – | – | < 50 | 500 to 2500 |
| – | < 50 | CC1=C(c2c(F)cc(F)cc2F)C(c2ccc(N3CCN(CC4CN(c5ccc(C6=N[C@@H](C)c7nnc(C)n7-c7sc(C)c(C)c76)cc5)C4)CC3)cc2)Oc2ccc(O)cc21 (stereo partly drawn) [V-21] | – | – | < 50 | 50 to 500 |
| – | 50 to 500 | CC1=C(c2c(F)cc(F)cc2F)[C@@H](c2ccc(N3CCN(CC4CCN(c5ccc(C6=N[C@@H](C)c7nnc(C)n7-c7sc(C)c(C)c76)cc5)CC4)CC3)cc2)Oc2ccc(O)cc21 [V-22] | – | – | < 50 | 500 to 2500 |
| – | 50 to 500 | CC1=C(c2c(F)cc(F)cc2F)[C@H](c2ccc(N3CCN(CC4CCN(c5ccc(C6=N[C@@H](C)c7nnc(C)n7-c7sc(C)c(C)c76)cc5)CC4)CC3)cc2)Oc2ccc(O)cc21 [V-23] | – | – | < 50 | 500 to 2500 |
| – | > 2500 | CC1=C(c2c(F)cc(F)cc2F)[C@H](c2ccc(N3CCN(CC4CCN(c5ccc(C6=N[C@H](C)c7nnc(C)n7-c7sc(C)c(C)c76)cc5)CC4)CC3)cc2)Oc2ccc(O)cc21 [V-24] | – | – | > 2500 | > 2500 |
| – | > 2500 | CC1=C(c2c(F)cc(F)cc2F)[C@@H](c2ccc(N3CCN(CC4CCN(c5ccc(C6=N[C@H](C)c7nnc(C)n7-c7sc(C)c(C)c76)cc5)CC4)CC3)cc2)Oc2ccc(O)cc21 [V-25] | – | – | > 2500 | > 2500 |
| – | 50 to 500 | CC1=C(c2c(F)cc(F)cc2F)[C@@H](c2ccc(OCC(=O)N3CCC4(CC3)CCN(c3ccc(C5=N[C@@H](C)c6nnc(C)n6-c6sc(C)c(C)c65)cc3)C4)cc2)Oc2ccc(O)cc21 [V-26] | – | – | < 50 | 50 to 500 |
| – | 50 to 500 | CC1=C(c2c(F)cc(F)cc2F)[C@H](c2ccc(OCC(=O)N3CCC4(CC3)CCN(c3ccc(C5=N[C@@H](C)c6nnc(C)n6-c6sc(C)c(C)c65)cc3)C4)cc2)Oc2ccc(O)cc21 [V-27] | – | – | < 50 | 500 to 2500 |
| – | < 50 | CC1=C(c2c(F)cc(F)cc2F)C(c2ccc(N3CCN(CC4(O)CCN(c5ccc(C6=N[C@@H](C)c7nnc(C)n7-c7sc(C)c(C)c76)cc5)CC4)CC3)cc2)Oc2ccc(O)cc21 (stereo partly drawn) [V-28] | – | – | < 50 | 50 to 500 |
| – | 50 to 500 | CC1=C(c2c(F)cc(F)cc2F)[C@@H](c2ccc(OCC(=O)N3CCCC4(CCN(c5ccc(C6=N[C@@H](C)c7nnc(C)n7-c7sc(C)c(C)c76)cc5)C4)C3)cc2)Oc2ccc(O)cc21 (stereo partly drawn) [V-29] | – | – | 50 to 500 | 50 to 500 |
| – | 50 to 500 | CC1=C(c2c(F)cc(F)cc2F)[C@H](c2ccc(OCC(=O)N3CCCC4(CCN(c5ccc(C6=N[C@@H](C)c7nnc(C)n7-c7sc(C)c(C)c76)cc5)C4)C3)cc2)Oc2ccc(O)cc21 (stereo partly drawn) [V-30] | – | – | 50 to 500 | 50 to 500 |
| – | 50 to 500 | CC1=C(c2c(F)cc(F)cc2F)[C@H](c2ccc(C3CCN(CC4(O)CCN(c5ccc(C6=N[C@@H](C)c7nnc(C)n7-c7sc(C)c(C)c76)cc5)CC4)CC3)cc2)Oc2ccc(O)cc21 [V-31] | – | – | < 50 | 50 to 500 |
| – | 50 to 500 | CC1=C(c2c(F)cc(F)cc2F)[C@@H](c2ccc(C3CCN(CC4(O)CCN(c5ccc(C6=N[C@@H](C)c7nnc(C)n7-c7sc(C)c(C)c76)cc5)CC4)CC3)cc2)Oc2ccc(O)cc21 [V-32] | – | – | < 50 | 500 to 2500 |
| – | 50 to 500 | CC1=C(c2c(F)cc(F)cc2F)[C@H](c2ccc(OCC(=O)N3CCCC4(CCN(c5ccc(C6=N[C@@H](Cc7ncco7)c7nnc(C)n7-c7sc(C)c(C)c76)cc5)C4)C3)cc2)Oc2ccc(O)cc21 (stereo partly drawn) [V-33] | – | – | < 50 | 50 to 500 |
| – | 50 to 500 | CC1=C(c2c(F)cc(F)cc2F)[C@@H](c2ccc(OCC(=O)N3CCCC4(CCN(c5ccc(C6=N[C@@H](Cc7ncco7)c7nnc(C)n7-c7sc(C)c(C)c76)cc5)C4)C3)cc2)Oc2ccc(O)cc21 (stereo partly drawn) [V-34] | – | – | 50 to 500 | 50 to 500 |
| – | < 50 | CC1=C(c2c(F)cc(F)cc2F)[C@H](c2ccc(N3CC(CN4CCN(CC5CN(c6ccc(C7=N[C@@H](C)c8nnc(C)n8-c8sc(C)c(C)c87)cc6)C5)CC4)C3)cc2)Oc2ccc(O)cc21 [V-35] | – | – | < 50 | 50 to 500 |
| – | 50 to 500 | CC1=C(c2c(F)cc(F)cc2F)[C@@H](c2ccc(N3CC(CN4CCN(CC5CN(c6ccc(C7=N[C@@H](C)c8nnc(C)n8-c8sc(C)c(C)c87)cc6)C5)CC4)C3)cc2)Oc2ccc(O)cc21 [V-36] | – | – | < 50 | 500 to 2500 |
| – | < 50 | Cc1cc(N2CCC(O)(CN3CCN(c4cc(F)c([C@@H]5c6ccc(O)cc6CC[C@@H]5c5ccccc5)cc4F)CC3)CC2)ccc1Oc1ccc(C(C)(C)O)cc1-c1cn(C)c(=O)c2[nH]ccc12 [V-37] | < 50 | 500 to 2500 | – | – |
| – | 50 to 500 | Cc1cc(N2CCC(O)(CN3CCN(c4cc(F)c([C@H]5c6ccc(O)cc6CC[C@H]5c5ccccc5)cc4F)CC3)CC2)ccc1Oc1ccc(C(C)(C)O)cc1-c1cn(C)c(=O)c2[nH]ccc12 [V-38] | 50 to 500 | 50 to 500 | – | – |
| – | 50 to 500 | Cc1cc(N2CCC(O)(CN3CCN(c4ccc([C@@H]5c6ccc(O)cc6CC[C@@H]5c5ccc(F)cc5F)cc4)CC3)CC2)ccc1Oc1ccc(C(C)(C)O)cc1-c1cn(C)c(=O)c2[nH]ccc12 [V-39] | 50 to 500 | 50 to 500 | – | – |
| – | < 50 | Cc1cc(N2CCC(O)(CN3CCN(c4ccc([C@H]5c6ccc(O)cc6CC[C@H]5c5ccc(F)cc5F)cc4)CC3)CC2)ccc1Oc1ccc(C(C)(C)O)cc1-c1cn(C)c(=O)c2[nH]ccc12 [V-40] | < 50 | 500 to 2500 | – | – |

— patent US12558428B2, “Heterobifunctional compounds and their use in treating disease” (Halda Therapeutics OpCo, Inc., priority 2024, dated 2026)
